From patent US20230022724A1, “NOVEL IMIDAZOPYRAZINE DERIVATIVES” (Hoffmann-La Roche Inc., priority 2018, published 2023)
Counter-ions that a name gives are not always drawn.

tested on: Acinetobacter baumannii ATCC17978; assay: Antimicrobial susceptibility testing: 90% growth inhibitory concentration (IC90) determination; type: cell-based; details: 90% growth inhibitory concentration, Acinetobacter baumannii ATCC17978, Iso-Sensitest broth, OD 600 nm over 16 h; formate salt; read-out: ATCC17978 IC90
Protocol: The in vitro antimicrobial activity of the compounds was determined according to the following procedure:
The assay used a 10-points Iso-Sensitest broth medium to measure quantitatively the in vitro activity of the compounds against Acinetobacter baumannii ATCC17978 and Acinetobacter baumannii ATCC17961.
Stock compounds in DMSO were serially twofold diluted (e.g. range from 50 to 0.097 μM final concentration) in 384 wells microtiter plates and inoculated with 49 μl the bacterial suspension in Iso-Sensitest medium to have a final cell concentration of ˜5×10^(5) CFU/ml in a final volume/well of 50 ul/well. Microtiter plates were incubated at 35±2° C.
Bacterial cell growth was determined with the measurement of optical density at λ=600 nm each 20 minutes over a time course of 16 h. Growth inhibition was calculated during the logarithmic growth of the bacterial cells with determination of the concentration inhibiting 50% (IC50) and 90% (IC90) of the growth.
Table 1 provides the 90% growth inhibitory concentrations (IC90) in micromoles per liter of the compounds of present invention obtained against the strain Acinetobacter baumannii ATCC17978 and Acinetobacter baumannii ATCC17961.

Row | IC90 [nM] | Structure (SMILES)
1 | 470 | COc1ccc(-c2cnc3c(Nc4ccc(C(=O)N5CCC(C(=O)N6CCNC(C(=O)O)C6)CC5)c(Cl)c4)nccn23)cc1F (stereo not drawn) [Example 2, 4-(1-(2-chloro-4-((3-(3-fluoro-4-methoxyphenyl)imidazo [1,2-a]pyrazin-8-yl)amino)benzoyl)piperidine-4-carbonyl) piperazine-2-carboxylic acid, formate salt]

same assay, conditions: 90% growth inhibitory concentration, Acinetobacter baumannii ATCC17978, Iso-Sensitest broth, OD 600 nm over 16 h; hydrochloride; read-out: ATCC17978 IC90

Row | IC90 [nM] | Structure (SMILES)
2 | 130 | COc1ccc(-c2cnc3c(Nc4ccc(C(=O)N5CCC(C(=O)NCC6CNC6)CC5)c(Cl)c4)nccn23)cc1F [Example 54, N-(azetidin-3-ylmethyl)-1-[2-chloro-4-[[3-(3-fluoro-4-methoxyphenyl)imidazo[1,2-a]pyrazin-8-yl]amino]benzoyl]piperidine-4-carboxamide;hydrochloride]

same assay, conditions: 90% growth inhibitory concentration, Acinetobacter baumannii ATCC17978, Iso-Sensitest broth, OD 600 nm over 16 h; read-out: ATCC17978 IC90

Row | IC90 [nM] | Structure (SMILES)
3 | 120 | COc1ccc(-c2cnc3c(Nc4ccc(C(=O)N5CCN(CCN(C)C)CC5)c(Cl)c4)nccn23)cc1F [Example 3, (2-Chloro-4-((3-(3-fluoro-4-methoxyphenyl)imidazo[1,2-a]pyrazin-8-yl)amino)phenyl)(4-(2-(dimethylamino)ethyl)piperazin-1-yl)methanone]

same assay, conditions: Acinetobacter baumannii, ATCC17978, 16 h, 90% growth inhibitory concentration, Acinetobacter baumannii ATCC17978, Iso-Sensitest broth, OD 600 nm over 16 h; read-out: ATCC17978 IC90

Row | IC90 [nM] | Structure (SMILES)
4 | 120 | COc1ccc(-c2cnc3c(Nc4ccc(C(=O)N5CCC(CN)CC5)c(Cl)c4)nccn23)cc1F [Example 4, (4-(Aminomethyl)piperidin-1-yl)(2-chloro-4-((3-(3-fluoro-4-methoxyphenyl)imidazo[1,2-a]pyrazin-8-yl)amino)phenyl)methanone hydrochloride]
5 | 110 | COc1ccc(-c2cnc3c(Nc4ccc(C(=O)N5CCN(CCN(C)C)CC5)c(Cl)c4)nccn23)c(Cl)c1F [Example 68, [2-chloro-4-[[3-(2-chloro-3-fluoro-4-methoxyphenyl)imidazo[1,2-a]pyrazin-8-yl]amino]phenyl]-[4-[2-(dimethylamino)ethyl]piperazin-1-yl]methanone]
6 | 270 | COc1ccc(-c2cnc3c(Nc4ccc(C(=O)N5CCC(C(=O)N6CCNC(CO)C6)CC5)c(Cl)c4)nccn23)cc1F (stereo not drawn) [Example 70, [2-chloro-4-[[3-(3-fluoro-4-methoxyphenyl)imidazo[1,2-a]pyrazin-8-yl]amino]phenyl]-[4-[3-(hydroxymethyl)piperazine-1-carbonyl]piperidin-1-yl]methanone;hydrochloride]
7 | 49 | CNCCN1CCN(C(=O)c2ccc(Nc3nccn4c(-c5ccc(OCC#N)c(F)c5F)cnc34)cc2Cl)CC1 [Example 91, 2-[4-[8-[3-chloro-4-[4-[2-(methylamino)ethyl]piperazine-1-carbonyl]anilino]imidazo[1,2-a]pyrazin-3-yl]-2,3-difluorophenoxy]acetonitrile; 2,2,2-trifluoroacetic acid]
8 | 170 | O=C(c1ccc(Nc2nccn3c(-c4ccc(OC(F)F)cc4)cnc23)cc1Cl)N1CCC(N2CCNCC2)CC1 [Example 67, [2-chloro-4-[[3-[4-(difluoromethoxy)phenyl]imidazo [1,2-a]pyrazin-8-yl]amino]phenyl]-(4-piperazin-1-ylpiperidin-1-yl)methanone;hydrochloride]
9 | 2700 | COc1ccc(-c2cnc3c(Nc4ccc(C(=O)N5CCN(C)CC5)cc4)nccn23)cc1Cl [Example 74, [4-[[3-(3-chloro-4-methoxyphenyl)imidazo[1,2-a]pyrazin-8-yl]amino]phenyl]-(4-methylpiperazin-1-yl)methanone]
10 | 140 | COc1ccc(-c2cnc3c(Nc4ccc(C(=O)N5CCN(CCNCCO)CC5)c(Cl)c4)nccn23)cc1F [Example 43, (2-Chloro-4-((3-(3-fluoro-4-methoxyphenyl)imidazo[1,2-a]pyrazin-8-yl)amino)phenyl)(4-(2-((2-hydroxyethyl)amino)ethyl)piperazin-1-yl)methanone]
11 | 170 | COc1ccc(-c2cnc3c(Nc4ccc(C(=O)N5CCC(CN)CC5)c(Cl)c4)nccn23)c(F)c1F [Example 8, (4-(aminomethyl)piperidin-1-yl)(2-chloro-4-((3-(2,3-difluoro-4-methoxyphenyl)imidazo[1,2-a]pyrazin-8-yl)amino)phenyl)methanone]
12 | 140 | COc1ccc(-c2cnc3c(Nc4ccc(C(=O)N5CCC(O)(CCN(C)C)CC5)c(Cl)c4)nccn23)cc1F [Example 28, (2-chloro-4-((3-(3-fluoro-4-methoxyphenyl)imidazo[1,2-a]pyrazin-8-yl)amino)phenyl)(4-(2-(dimethylamino)ethyl)-4-hydroxypiperidin-1-yl)methanone]
13 | 86 | N#CCOc1ccc(-c2cnc3c(Nc4ccc(C(=O)N5CCN(CCN6CCCC6)CC5)c(Cl)c4)nccn23)c(Cl)c1F [Example 26]
14 | 54 | N#CCOc1ccc(-c2cnc3c(Nc4ccc(C(=O)N5CCN(CCN6CC(C(N)=O)C6)CC5)c(Cl)c4)nccn23)c(F)c1F [Example 94, 1-[2-[4-[2-chloro-4-[[3-[4-(cyanomethoxy)-2,3-difluorophenyl]imidazo[1,2-a]pyrazin-8-yl]amino]benzoyl]piperazin-1-yl]ethyl]azetidine-3-carboxamide;2,2,2-trifluoroacetic acid]

Row | Structure (SMILES) | IC90 [nM]
15 | CN(C)CCN1CCN(C(=O)c2ccc(Nc3nccn4c(-c5ccc(OCC#N)c(F)c5F)cnc34)cc2Cl)CC1 [Example 10, 2-(4-(8-((3-chloro-4-(4-(2-(dimethylamino)ethyl)piperazine-1-carbonyl)phenyl)amino)imidazo[1,2-a]pyrazin-3-yl)-2,3-difluorophenoxy)acetonitrile] | 64

same assay, conditions: Acinetobacter baumannii, ATCC17978, 16 h, read-out: ATCC17978 IC90

Row | Structure (SMILES) | IC90 [nM]
16 | N#CCOc1ccc(-c2cnc3c(Nc4ccc(C(=O)N5CCC(C(=O)N6CCN[C@@H](C(=O)O)C6)CC5)c(Cl)c4)nccn23)c(F)c1F [Example 46, (R)-4-(1-(2-chloro-4-((3-(4-(cyanomethoxy)-2,3-difluorophenyl)imidazo[1,2-a]pyrazin-8-yl)amino)benzoyl)piperidine-4-carbonyl)piperazine-2-carboxylic Acid; Formic Acid] | 890
17 | CC(C#N)Oc1ccc(-c2cnc3c(Nc4ccc(C(=O)N5CCN(CCN(C)C)CC5)c(Cl)c4)nccn23)c(F)c1F (stereo not drawn) [Example 41, 2-[4-[8-[3-chloro-4-[4-[2-(dimethylamino)ethyl]piperazine-1-carbonyl]anilino]imi-dazo[1,2-a]pyrazin-3-yl]-2,3-difluoro-phenoxy]propanenitrile formate] | 130
18 | COc1ccc(-c2cnc3c(Nc4ccc(C(=O)N5CCN(C(=O)C(O)CN)CC5)c(Cl)c4)nccn23)cc1F (stereo not drawn) [Example 56, 3-amino-1-[4-[2-chloro-4-[[3-(3-fluoro-4-methoxyphenyl)imidazo[1,2-a]pyrazin-8-yl]amino]benzoyl]piperazin-1-yl]-2-hydroxypropan-1-one; hydrochloride] | 240
19 | CS(=O)(=O)C1CN(CCN2CCN(C(=O)c3ccc(Nc4nccn5c(-c6ccc(OCC#N)c(F)c6F)cnc45)cc3Cl)CC2)C1 [Example 98, 2-[4-[8-[3-chloro-4-[4-[2-(3-methylsulfonylazetidin-1-yl)ethyl]piperazine-1-carbonyl]anilino]imidazo[1,2-a]pyrazin-3-yl]-2,3-difluorophenoxy]acetonitrile; 2,2,2-trifluoroacetic acid] | 140
20 | CNCCNC(=O)C1CCN(C(=O)c2ccc(Nc3nccn4c(-c5ccc(OC)c(F)c5)cnc34)cc2Br)CC1 [Example 44, 1-(2-bromo-4-((3-(3-fluoro-4-methoxyphenyl)imidazo[1,2-a]pyrazin-8-yl)amino)benzoyl)-N-(2-(methylamino)ethyl)piperidine-4-carboxamide; Formic Acid] | 300
21 | N#CCOc1ccc(-c2cnc3c(Nc4ccc(C(=O)N5CCN(CCN6CCCC6CO)CC5)c(Cl)c4)nccn23)c(F)c1F (stereo not drawn) [Example 93, 2-[4-[8-[3-chloro-4-[4-[2-[2-(hydroxymethyl)pyrrolidin-1-yl]ethyl]piperazine-1-carbonyl]anilino]imidazo[1,2-a]pyrazin-3-yl]-2,3-difluorophenoxy]acetonitrile; 2,2,2-trifluoroacetic acid] | 53
22 | N#CCOc1ccc(-c2cnc3c(Nc4ccc(C(=O)N5CCC(C(=O)N6CCN[C@H](C(=O)O)C6)CC5)c(Cl)c4)nccn23)c(F)c1F [Example 45, (2S)-4-[1-[2-chloro-4-[[3-[4-(cyanomethoxy)-2,3-difluoro-phenyl]imidazo[1,2-a]pyrazin-8-yl]amino]benzoyl]piperidine-4-carbonyl]piperazine-2-carboxylic Acid; Formic Acid] | 880
23 | COc1ccc(-c2cnc3c(Nc4ccc(C(=O)N5CCC(C(=O)N6CCOC(CN)C6)CC5)c(Cl)c4)nccn23)cc1F (stereo not drawn) [Example 52, [4-[2-(aminomethyl)morpholine-4-carbonyl]piperidin-1-yl]-[2-chloro-4-[[3-(3-fluoro-4-methoxyphenyl)imidazo[1,2-a]pyrazin-8-yl]amino]phenyl]methanone; hydrochloride] | 88
24 | N#CCOc1ccc(-c2cnc3c(Nc4ccc(C(=O)N5CCN(CCN6CCC(C(=O)O)C6)CC5)c(Cl)c4)nccn23)c(F)c1F (stereo not drawn) [Example 47, 1-[2-[4-[2-chloro-4-[[3-[4-(cyanomethoxy)-2,3-difluoro-phenyl]imidazo[1,2-a]pyrazin-8-yl]amino]benzoyl]piperazin-1-yl]ethyl]pyrrolidine-3-carboxylic Acid Trifluoroacetate] | 430
